Measurements from article PMC9371699, “Cell-penetrating peptides enhance peptide vaccine accumulation and persistence in lymph nodes to drive immunogenicity” (Proceedings of the National Academy of Sciences of the …, 2022).
Ends that are not written are not given here.

Columns and labels:
[1] = biological target: proteinase K (Parengyodontium album, UniProt P06873); experiment: Proteolysis LC-MS assay; type: in vitro ADME; details: 5 µM peptide in PBS, 0.5 ng proteinase K, 37 °C, 2 hours, time points 0, 30, 60, 120 min, LC-MS (Q-TOF), no other serum components
Excerpt: To gain more direct evidence of altered peptide stability, we used quadrupole time-of-flight liquid chromatography/MS (LC-QTOF-MS), to directly detect proteolytic degradation of pAntp and MPG conjugates in serum. […] We hypothesized that enhanced stability of the conjugates could reflect an intrinsic protective peptidase-/protease-blocking effect by the CPP or be an indirect effect mediated by binding of the conjugate to other serum proteins that sterically interfere with protease attack on the peptide. To distinguish these possibilities, we performed a similar experiment assessing proteolytic stability in the presence of purified proteinase K—a promiscuous protease that cleaves peptide bonds following hydrophobic amino acids—in the absence of other serum components.
C18 column (2 μm particle size, 15 cm × 50 μm ID; Thermo Fisher Scientific). Mobile phase A was 0.1% formic acid in ultrapure water (v/v) and mobile phase B was 80% acetonitrile, 0.1% formic acid in ultrapure water (v/v). The nano-LC method was as follows: 1% B ramping in a linear manner to 41% B in A over 120 minutes, flow rate: 300 nL/min. Data were processed using PEAKS proteomics software.
Serum stability LC-MS assay. […]
Proteolysis LC-MS Assay. […] They were then resuspended 50:50 water:acetonitrile with 0.1% trifluoroacetic acid and reaction analyzed on an Agilent 6550 iFunnel Q -TOF MS. […]

[2] = T cell activation-based serum stability assay; type: in vitro ADME; details: 30 µM peptide in RPMI-1640 + 10% fresh mouse serum, 24 h, 37 °C, vs fresh peptide; titrated on splenocytes, CD69 read-out by flow cytometry
Experimental: Peptides are also highly susceptible to proteolytic cleavage, resulting in a short half-life in vivo ([65], [66]). […] To test if the association of antigen-CPPs with serum components impacts peptide antigen stability, we used an in vitro antigen-presentation assay to functionally determine if T cells could still be activated by antigen-CPPs after incubation with serum proteases ([22]). Free gp100 peptide or gp100-CPP peptides were incubated for 24 h in 10% mouse serum, then added to splenocytes at titrated doses for 1 h to allow antigen uptake and processing, followed by culture with pmel-1 (gp100–specific) T cells for 24 h and assessment of pmel-1 CD69 expression (Fig. 6A and SI Appendix, Fig. S13). From these cocultures, we determined the peptide antigen concentration required for 50% of maximal CD69 up-regulation by the pmel-1 T cells (EC50) (Fig. 6B) and the change in EC50 for peptides preincubated with serum (ΔEC50) (Fig. 6C). […] In contrast, the ΔEC50 for gp100-CPPs ranged from 0.76 to 3.4 (Fig. 6C).
Following prime and boost of mice with gp100 peptides, CD8^+ T cell responses were confirmed on day −1. […] CD69^+/CD8^+ T cell responses were measured by flow cytometry.
Figure S13. […] Shown are plots of pmel activation, measured via CD69 upregulation, against the concentration of the fresh or serum -treated construct. […]

Chain of proteinase K (P06873 106-384, species assumed): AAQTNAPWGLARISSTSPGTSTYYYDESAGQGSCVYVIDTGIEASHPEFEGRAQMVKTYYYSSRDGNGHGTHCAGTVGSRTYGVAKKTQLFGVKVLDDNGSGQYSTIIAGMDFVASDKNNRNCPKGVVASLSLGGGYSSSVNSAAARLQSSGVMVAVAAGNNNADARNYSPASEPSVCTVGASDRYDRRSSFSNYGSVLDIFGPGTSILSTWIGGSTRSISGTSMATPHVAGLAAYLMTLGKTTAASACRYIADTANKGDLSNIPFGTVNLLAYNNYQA

## AVGALEGPRNQDWLGVPRQL-NH2 [gp100]
[1]
  proteolytic stability with purified proteinase K: rapid degradation
[2]
  increase in EC50 (CD69 up-regulation) after incubation in serum: ~16 fold
